Results from the kinase profiling compilation of Christmann-Franck et al. (2016).

Legend:
[1] = molecular target: TAOK3 (human) (UniProt Q9H2K8)
[2] = molecular target: PKN1 (human) (UniProt Q16512)
[3] = molecular target: LYN (human) (UniProt P07948)
[4] = molecular target: ABL2 (human) (UniProt P42684)
[5] = molecular target: CAMK1D (human) (UniProt Q8IU85)
[6] = molecular target: MTOR (human) (UniProt P42345)
[7] = molecular target: STK16 (human) (UniProt O75716)
[8] = molecular target: ATM (human) (UniProt Q13315)
[9] = molecular target: DDR1 (human) (UniProt Q08345)
[10] = molecular target: CAMK2A (human) (UniProt Q9UQM7)
Sequence of CAMK2A (human) (Q9UQM7 whole entry, looked up): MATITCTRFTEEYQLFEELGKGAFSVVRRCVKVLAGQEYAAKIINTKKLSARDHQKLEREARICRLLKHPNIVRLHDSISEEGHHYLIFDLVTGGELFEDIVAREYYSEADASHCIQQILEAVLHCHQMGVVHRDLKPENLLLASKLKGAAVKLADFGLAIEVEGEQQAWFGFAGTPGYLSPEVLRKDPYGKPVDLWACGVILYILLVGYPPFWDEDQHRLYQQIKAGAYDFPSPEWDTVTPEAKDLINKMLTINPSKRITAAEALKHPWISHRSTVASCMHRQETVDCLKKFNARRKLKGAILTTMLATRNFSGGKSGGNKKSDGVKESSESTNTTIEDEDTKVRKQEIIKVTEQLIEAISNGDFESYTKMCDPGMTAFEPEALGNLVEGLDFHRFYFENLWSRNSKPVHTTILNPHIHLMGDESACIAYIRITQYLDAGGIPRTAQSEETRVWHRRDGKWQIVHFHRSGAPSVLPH

[11] = molecular target: CAMK2B (human) (UniProt Q13554)
Sequence of CAMK2B (human) (Q13554 whole entry, looked up): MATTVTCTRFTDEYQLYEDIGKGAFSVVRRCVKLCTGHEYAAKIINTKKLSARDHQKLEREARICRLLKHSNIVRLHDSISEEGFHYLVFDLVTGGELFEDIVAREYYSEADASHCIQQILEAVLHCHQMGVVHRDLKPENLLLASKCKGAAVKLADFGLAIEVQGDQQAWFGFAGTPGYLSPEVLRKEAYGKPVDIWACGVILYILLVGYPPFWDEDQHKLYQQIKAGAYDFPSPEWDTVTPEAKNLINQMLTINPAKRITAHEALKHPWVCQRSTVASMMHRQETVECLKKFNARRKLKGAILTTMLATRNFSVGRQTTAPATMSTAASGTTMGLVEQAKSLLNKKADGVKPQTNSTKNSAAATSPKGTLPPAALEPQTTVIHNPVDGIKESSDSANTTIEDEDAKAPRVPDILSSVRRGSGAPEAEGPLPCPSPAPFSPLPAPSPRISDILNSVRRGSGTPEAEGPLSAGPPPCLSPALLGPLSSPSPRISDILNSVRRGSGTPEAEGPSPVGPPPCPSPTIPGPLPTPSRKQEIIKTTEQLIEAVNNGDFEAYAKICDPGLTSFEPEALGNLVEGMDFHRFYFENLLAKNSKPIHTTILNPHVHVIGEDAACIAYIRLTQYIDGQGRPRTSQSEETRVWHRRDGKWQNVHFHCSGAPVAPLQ

[12] = molecular target: STK4 (human) (UniProt Q13043)
[13] = molecular target: CAMK2D (human) (UniProt Q13557)
[14] = molecular target: MARK2 (human) (UniProt Q7KZI7)
[15] = molecular target: TYK2 JH1 JH2 (human) (UniProt P29597)
[16] = molecular target: PTK2 (human) (UniProt Q05397)
[17] = molecular target: CSNK2A2 (human) (UniProt P19784)
[18] = molecular target: LIMK1 (human) (UniProt P53667)
[19] = molecular target: BRAF (human) (UniProt P15056)
[20] = molecular target: MAP3K4 (human) (UniProt Q9Y6R4)
[21] = molecular target: MAST3 (human) (UniProt O60307)
[22] = molecular target: AAK1 (human) (UniProt Q2M2I8)
[23] = molecular target: MAPK1 (human) (UniProt P28482)
[24] = molecular target: MAP3K5 (human) (UniProt Q99683)
[25] = molecular target: MAPK3 (human) (UniProt P27361)
[26] = molecular target: ITK (human) (UniProt Q08881)
[27] = molecular target: LRRK2 (human) (UniProt Q5S007)
[28] = molecular target: HCK (human) (UniProt P08631)
[29] = molecular target: MAP3K11 (human) (UniProt Q16584)
Sequence of MAP3K11 (human) (Q16584 whole entry, looked up): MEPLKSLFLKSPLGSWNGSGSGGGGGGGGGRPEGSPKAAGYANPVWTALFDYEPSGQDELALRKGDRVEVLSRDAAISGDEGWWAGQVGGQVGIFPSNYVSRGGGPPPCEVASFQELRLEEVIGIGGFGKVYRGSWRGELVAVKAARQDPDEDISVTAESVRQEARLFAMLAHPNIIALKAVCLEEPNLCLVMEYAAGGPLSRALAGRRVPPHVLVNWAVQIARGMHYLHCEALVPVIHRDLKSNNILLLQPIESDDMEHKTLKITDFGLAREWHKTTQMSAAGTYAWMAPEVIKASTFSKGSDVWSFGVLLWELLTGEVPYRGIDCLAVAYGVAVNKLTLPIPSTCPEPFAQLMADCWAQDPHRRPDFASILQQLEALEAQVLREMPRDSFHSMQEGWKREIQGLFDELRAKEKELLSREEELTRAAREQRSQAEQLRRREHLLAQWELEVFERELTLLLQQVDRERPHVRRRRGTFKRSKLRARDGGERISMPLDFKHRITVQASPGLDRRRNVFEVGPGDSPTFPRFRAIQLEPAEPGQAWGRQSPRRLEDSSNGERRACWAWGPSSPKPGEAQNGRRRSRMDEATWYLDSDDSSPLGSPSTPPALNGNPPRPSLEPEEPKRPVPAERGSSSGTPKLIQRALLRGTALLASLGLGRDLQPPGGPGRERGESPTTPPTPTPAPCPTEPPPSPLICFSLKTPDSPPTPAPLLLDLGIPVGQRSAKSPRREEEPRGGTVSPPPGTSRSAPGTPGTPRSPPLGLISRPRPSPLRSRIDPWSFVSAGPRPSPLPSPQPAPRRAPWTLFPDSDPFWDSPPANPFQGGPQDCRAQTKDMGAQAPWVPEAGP

[30] = molecular target: IKBKE (human) (UniProt Q14164)
[31] = molecular target: RPS6KA5 KD1 KD2 (human) (UniProt O75582)
Sequence of RPS6KA5 KD1 KD2 (human) (O75582 whole entry, looked up): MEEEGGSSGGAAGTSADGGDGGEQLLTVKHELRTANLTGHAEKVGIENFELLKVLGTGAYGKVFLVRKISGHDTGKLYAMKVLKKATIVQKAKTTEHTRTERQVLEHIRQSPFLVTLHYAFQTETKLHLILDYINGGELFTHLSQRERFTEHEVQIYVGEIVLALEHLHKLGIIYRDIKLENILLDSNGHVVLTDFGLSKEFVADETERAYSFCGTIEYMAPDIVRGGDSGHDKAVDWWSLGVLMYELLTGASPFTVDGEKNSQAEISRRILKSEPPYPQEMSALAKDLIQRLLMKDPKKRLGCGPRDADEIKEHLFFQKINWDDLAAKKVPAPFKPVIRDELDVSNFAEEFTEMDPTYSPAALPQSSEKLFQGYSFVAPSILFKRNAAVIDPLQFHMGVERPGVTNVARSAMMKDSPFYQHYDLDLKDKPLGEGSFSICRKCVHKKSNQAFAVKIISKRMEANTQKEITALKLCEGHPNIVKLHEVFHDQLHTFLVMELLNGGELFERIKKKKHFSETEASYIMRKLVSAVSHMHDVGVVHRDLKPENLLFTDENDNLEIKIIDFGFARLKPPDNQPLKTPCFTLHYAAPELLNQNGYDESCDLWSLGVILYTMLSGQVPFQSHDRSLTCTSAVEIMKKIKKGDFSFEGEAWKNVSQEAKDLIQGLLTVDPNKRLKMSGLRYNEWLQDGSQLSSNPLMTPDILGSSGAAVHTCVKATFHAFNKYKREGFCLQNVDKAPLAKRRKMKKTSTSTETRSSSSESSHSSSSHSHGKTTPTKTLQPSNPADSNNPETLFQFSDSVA

[32] = molecular target: TEC (human) (UniProt P42680)
[33] = molecular target: JAK2 JH1 JH2 (human) (UniProt O60674)
[34] = molecular target: BTK (human) (UniProt Q06187)
[35] = molecular target: PRKD2 (human) (UniProt Q9BZL6)
[36] = molecular target: RIPK2 (human) (UniProt O43353)
[37] = molecular target: CDKL2 (human) (UniProt Q92772)
[38] = molecular target: JAK3 JH1 JH2 (human) (UniProt P52333)
Sequence of JAK3 JH1 JH2 (human) (P52333 whole entry, looked up): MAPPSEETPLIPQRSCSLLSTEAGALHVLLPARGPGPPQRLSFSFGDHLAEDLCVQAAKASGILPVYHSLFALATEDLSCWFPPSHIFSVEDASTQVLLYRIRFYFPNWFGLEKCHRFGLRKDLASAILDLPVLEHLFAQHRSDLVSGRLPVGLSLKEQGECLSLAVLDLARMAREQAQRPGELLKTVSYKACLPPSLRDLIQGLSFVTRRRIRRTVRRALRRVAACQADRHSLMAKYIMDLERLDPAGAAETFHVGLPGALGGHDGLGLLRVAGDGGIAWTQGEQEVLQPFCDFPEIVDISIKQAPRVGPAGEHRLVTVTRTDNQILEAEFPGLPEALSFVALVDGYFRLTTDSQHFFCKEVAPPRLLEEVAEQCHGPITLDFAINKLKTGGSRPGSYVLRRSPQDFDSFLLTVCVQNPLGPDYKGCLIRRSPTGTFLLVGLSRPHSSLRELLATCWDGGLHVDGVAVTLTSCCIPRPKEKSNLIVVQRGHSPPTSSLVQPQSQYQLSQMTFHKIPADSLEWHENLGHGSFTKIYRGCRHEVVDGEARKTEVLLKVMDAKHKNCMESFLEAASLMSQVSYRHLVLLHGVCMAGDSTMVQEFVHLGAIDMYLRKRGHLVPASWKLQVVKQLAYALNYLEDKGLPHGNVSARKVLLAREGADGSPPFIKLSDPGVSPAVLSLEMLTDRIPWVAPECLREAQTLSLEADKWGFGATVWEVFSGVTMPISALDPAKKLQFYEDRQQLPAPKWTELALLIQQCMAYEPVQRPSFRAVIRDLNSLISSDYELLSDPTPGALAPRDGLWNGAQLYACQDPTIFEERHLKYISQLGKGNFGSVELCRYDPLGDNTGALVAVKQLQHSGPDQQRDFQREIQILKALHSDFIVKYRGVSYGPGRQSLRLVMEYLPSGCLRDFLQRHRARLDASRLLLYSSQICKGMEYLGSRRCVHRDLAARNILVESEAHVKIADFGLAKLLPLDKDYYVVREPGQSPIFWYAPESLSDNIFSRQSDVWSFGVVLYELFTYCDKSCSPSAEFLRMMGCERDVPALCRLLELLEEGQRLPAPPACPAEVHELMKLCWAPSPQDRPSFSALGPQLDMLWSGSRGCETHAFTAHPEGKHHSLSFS

[39] = molecular target: FES (human) (UniProt P07332)
[40] = molecular target: JAK1 JH1 JH2 (human) (UniProt P23458)
[41] = molecular target: CAMKK2 (human) (UniProt Q96RR4)
Sequence of CAMKK2 (human) (Q96RR4 whole entry, looked up): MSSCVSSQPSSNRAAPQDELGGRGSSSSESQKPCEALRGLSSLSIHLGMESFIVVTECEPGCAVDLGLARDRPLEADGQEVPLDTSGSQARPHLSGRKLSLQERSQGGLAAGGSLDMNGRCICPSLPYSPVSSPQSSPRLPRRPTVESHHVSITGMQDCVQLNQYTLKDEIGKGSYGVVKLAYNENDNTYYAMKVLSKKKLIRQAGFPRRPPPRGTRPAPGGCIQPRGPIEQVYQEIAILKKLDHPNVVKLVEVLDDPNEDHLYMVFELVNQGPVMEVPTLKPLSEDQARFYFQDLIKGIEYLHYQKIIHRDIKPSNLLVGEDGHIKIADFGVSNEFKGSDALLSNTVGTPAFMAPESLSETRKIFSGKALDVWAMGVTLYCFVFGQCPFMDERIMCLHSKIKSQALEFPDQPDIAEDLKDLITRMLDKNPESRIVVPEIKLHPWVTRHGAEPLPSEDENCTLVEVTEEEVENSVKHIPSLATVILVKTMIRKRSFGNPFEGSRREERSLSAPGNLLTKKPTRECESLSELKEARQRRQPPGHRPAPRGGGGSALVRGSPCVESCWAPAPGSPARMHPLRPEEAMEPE

[42] = molecular target: CAMK2G (human) (UniProt Q13555)
[43] = molecular target: TNK2 (human) (UniProt Q07912)
[44] = molecular target: CSNK2A1 (human) (UniProt P68400)

Sequence of LYN (human) (P07948 whole entry, looked up): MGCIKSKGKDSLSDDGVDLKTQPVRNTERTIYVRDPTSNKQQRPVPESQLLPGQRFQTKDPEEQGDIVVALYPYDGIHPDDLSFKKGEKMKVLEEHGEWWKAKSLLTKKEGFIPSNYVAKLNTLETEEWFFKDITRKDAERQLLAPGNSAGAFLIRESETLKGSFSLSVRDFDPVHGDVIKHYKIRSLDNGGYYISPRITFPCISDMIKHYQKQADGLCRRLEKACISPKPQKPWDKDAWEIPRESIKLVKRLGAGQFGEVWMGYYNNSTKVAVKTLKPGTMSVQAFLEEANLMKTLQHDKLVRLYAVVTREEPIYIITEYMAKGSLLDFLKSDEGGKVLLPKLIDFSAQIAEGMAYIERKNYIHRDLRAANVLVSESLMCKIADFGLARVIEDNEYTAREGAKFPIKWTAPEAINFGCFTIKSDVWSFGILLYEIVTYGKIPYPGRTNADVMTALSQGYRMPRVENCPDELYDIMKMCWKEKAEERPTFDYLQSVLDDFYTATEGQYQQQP

IC50 [1]: 9.47 µM | IC50 [2]: > 10 µM | IC50 [3]: > 10 µM | IC50 [4]: > 10 µM | IC50 [5]: > 10 µM | IC50 [6]: > 10 µM | IC50 [7]: > 10 µM | IC50 [8]: > 10 µM | IC50 [9]: > 10 µM | IC50 [10]: > 10 µM | IC50 [11]: 7.68 µM | IC50 [12]: > 10 µM | IC50 [13]: 7.67 µM | IC50 [14]: > 10 µM | IC50 [15]: 2.48 µM | IC50 [16]: > 10 µM | IC50 [17]: > 10 µM | IC50 [18]: > 10 µM | IC50 [19]: > 10 µM | IC50 [20]: > 10 µM | IC50 [21]: > 10 µM | IC50 [22]: > 10 µM | IC50 [23]: > 10 µM | IC50 [24]: > 10 µM | IC50 [25]: > 10 µM | IC50 [26]: > 10 µM | IC50 [27]: 9.63 µM | IC50 [28]: > 10 µM | IC50 [29]: > 10 µM | IC50 [30]: > 10 µM | IC50 [31]: > 10 µM | IC50 [32]: > 10 µM | IC50 [33]: > 10 µM | IC50 [34]: > 10 µM | IC50 [35]: 1.26 µM | IC50 [36]: > 10 µM | IC50 [37]: > 10 µM | IC50 [38]: > 10 µM | IC50 [39]: > 10 µM | IC50 [40]: > 10 µM | IC50 [41]: 0.925 µM | IC50 [42]: 8.42 µM | IC50 [43]: > 10 µM | IC50 [44]: 9.42 µM
Compound: CN1CC[C@H](c2c(O)cc(O)c3c(=O)cc(-c4ccccc4Cl)oc23)[C@H](O)C1
